Experimental data reported in PubChem BioAssay AID1963976 (Molecular Pharmacology Branch, DTP, NCI, 2024).

Tested on: 435261-313-R-J1-PDC tumor spheroid viability
Experiment: Anticancer human tumor 435261-313-R-J1-PDC patient-derived colon adenocarcinoma cell line growth inhibition [PI3K]
Conditions: spheroids with HUVEC and MSC; for IC50: curve of first compound; for viability, T/C: stronger effect = lower value
How it was run: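 Complex 3D spheroids (cancer cells + endothelial HUVEC + mesenchymal stem cells); drug pairs of targeted agent x inavolisib/alpelisib/duvelisib/copanlisib; half-log series from ~Cmax, max 10 microM if Cmax unknown; endpoint viability.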

[1] = second compound 0.0316 µM, first compound 0.0316 µM
[2] = second compound 0.0316 µM, first compound 0.1 µM
[3] = second compound 0.1 µM, first compound 0.0316 µM
[4] = second compound 0.1 µM, first compound 0.1 µM
[5] = second compound 0.316 µM, first compound 0.0316 µM
[6] = second compound 0.316 µM, first compound 0.1 µM
[7] = second compound 1 µM, first compound 0.0316 µM
[8] = second compound 1 µM, first compound 0.1 µM
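Further: spheroids exposed to compounds for 7 days.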

In the case of CC(C)n1nc(-c2ccc3oc(N)nc3c2)c2c(N)ncnc21 + COc1c(OCCCN2CCOCC2)ccc2c3n(c(=NC(=O)c4cnc(N)nc4)nc12)CCN3, the IC50 (second compound 0.00316 µM) is reported as 11.8 nM, the IC50 (second compound 0.01 µM) is reported as 1.34 nM and the IC50 (second compound 0.0316 µM) is reported as under 0.316 nM. The IC50 (second compound 0.1 µM) was under 0.316 nM, the IC50 (second compound 0.316 µM) was under 0.316 nM and the IC50 (second compound 1 µM) was under 0.316 nM. It also gave a viability, T/C (second compound 0.00316 µM, first compound 0.000316 µM) of 66.9%, a viability, T/C (second compound 0.00316 µM, first compound 0.001 µM) of 47.5% and a viability, T/C (second compound 0.00316 µM, first compound 0.00316 µM) of 74.6%. For the same compound, the viability, T/C (second compound 0.00316 µM, first compound 0.01 µM) was 51.4%, the viability, T/C (second compound 0.00316 µM, first compound 0.0316 µM) was 27.4% and the viability, T/C (second compound 0.00316 µM, first compound 0.1 µM) was 12.1%. It also gave a viability, T/C (second compound 0.01 µM, first compound 0.000316 µM) of 48.1%, a viability, T/C (second compound 0.01 µM, first compound 0.001 µM) of 56.3% and a viability, T/C (second compound 0.01 µM, first compound 0.00316 µM) of 46.8%. For the same compound, the viability, T/C (second compound 0.01 µM, first compound 0.01 µM) was 32.2%, the viability, T/C (second compound 0.01 µM, first compound 0.0316 µM) was 21.7% and the viability, T/C (second compound 0.01 µM, first compound 0.1 µM) was 10.8%. It also gave a viability, T/C (second compound 0.0316 µM, first compound 0.000316 µM) of 25.7%, a viability, T/C (second compound 0.0316 µM, first compound 0.001 µM) of 22.9% and a viability, T/C (second compound 0.0316 µM, first compound 0.00316 µM) of 24%. It also gave a viability, T/C (second compound 0.0316 µM, first compound 0.01 µM) of 19.4%, a viability, T/C [1] of 16.4% and a viability, T/C [2] of 9.19%. For the same compound, the viability, T/C (second compound 0.1 µM, first compound 0.000316 µM) was 16.6%, the viability, T/C (second compound 0.1 µM, first compound 0.001 µM) was 14.2% and the viability, T/C (second compound 0.1 µM, first compound 0.00316 µM) was 14%. It also gave a viability, T/C (second compound 0.1 µM, first compound 0.01 µM) of 13.6%, a viability, T/C [3] of 10.3% and a viability, T/C [4] of 5.04%. It also gave a viability, T/C (second compound 0.316 µM, first compound 0.000316 µM) of 8.4%, a viability, T/C (second compound 0.316 µM, first compound 0.001 µM) of 7.74% and a viability, T/C (second compound 0.316 µM, first compound 0.00316 µM) of 6.9%. For the same compound, the viability, T/C (second compound 0.316 µM, first compound 0.01 µM) was 6.3%, the viability, T/C [5] was 4.52% and the viability, T/C [6] was 2.1%. The viability, T/C (second compound 1 µM, first compound 0.000316 µM) was 4.2%, the viability, T/C (second compound 1 µM, first compound 0.001 µM) was 4.04% and the viability, T/C (second compound 1 µM, first compound 0.00316 µM) was 3.72%. It also gave a viability, T/C (second compound 1 µM, first compound 0.01 µM) of 3.28%, a viability, T/C [7] of 3.57% and a viability, T/C [8] of 2.22%.

For CC1(C)CCC(CN2CCN(c3ccc(C(=O)NS(=O)(=O)c4ccc(NCC5CCOCC5)c([N+](=O)[O-])c4)c(Oc4cnc5[nH]ccc5c4)c3)CC2)=C(c2ccc(Cl)cc2)C1 + Cc1nc(NC(=O)N2CCCC2C(N)=O)sc1-c1ccnc(C(C)(C)C(F)(F)F)c1, the IC50 (second compound 0.0316 µM) was 5030 nM, the IC50 (second compound 0.1 µM) was 4930 nM and the IC50 (second compound 0.316 µM) was 3530 nM. For the same compound, the IC50 (second compound 1 µM) was under 31.6 nM, the IC50 (second compound 3.16 µM) was under 31.6 nM and the IC50 (second compound 10 µM) was under 31.6 nM. The viability, T/C [1] was 50.2%, the viability, T/C [2] was 81.4% and the viability, T/C (second compound 0.0316 µM, first compound 0.316 µM) was 78.5%. It also gave a viability, T/C (second compound 0.0316 µM, first compound 1 µM) of 83%, a viability, T/C (second compound 0.0316 µM, first compound 3.16 µM) of 95.5% and a viability, T/C (second compound 0.0316 µM, first compound 10 µM) of 8.94%. The viability, T/C [3] was 51.2%, the viability, T/C [4] was 74.1% and the viability, T/C (second compound 0.1 µM, first compound 0.316 µM) was 93.8%. For the same compound, the viability, T/C (second compound 0.1 µM, first compound 1 µM) was 69.1%, the viability, T/C (second compound 0.1 µM, first compound 3.16 µM) was 90.8% and the viability, T/C (second compound 0.1 µM, first compound 10 µM) was 8.73%. It also gave a viability, T/C [5] of 50.5%, a viability, T/C [6] of 57.7% and a viability, T/C (second compound 0.316 µM, first compound 0.316 µM) of 44%. The viability, T/C (second compound 0.316 µM, first compound 1 µM) was 61.1%, the viability, T/C (second compound 0.316 µM, first compound 3.16 µM) was 58.6% and the viability, T/C (second compound 0.316 µM, first compound 10 µM) was 9.2%. The viability, T/C [7] was 26.7%, the viability, T/C [8] was 24.3% and the viability, T/C (second compound 1 µM, first compound 0.316 µM) was 27.9%. The viability, T/C (second compound 1 µM, first compound 1 µM) was 25.4%, the viability, T/C (second compound 1 µM, first compound 3.16 µM) was 22.6% and the viability, T/C (second compound 1 µM, first compound 10 µM) was 4.29%. The viability, T/C (second compound 3.16 µM, first compound 0.0316 µM) was 16.6%, the viability, T/C (second compound 3.16 µM, first compound 0.1 µM) was 16.1% and the viability, T/C (second compound 3.16 µM, first compound 0.316 µM) was 13.4%. For the same compound, the viability, T/C (second compound 3.16 µM, first compound 1 µM) was 18.5%, the viability, T/C (second compound 3.16 µM, first compound 3.16 µM) was 18.1% and the viability, T/C (second compound 3.16 µM, first compound 10 µM) was 4.62%. For the same compound, the viability, T/C (second compound 10 µM, first compound 0.0316 µM) was 9.42%, the viability, T/C (second compound 10 µM, first compound 0.1 µM) was 8.27% and the viability, T/C (second compound 10 µM, first compound 0.316 µM) was 7.16%. For the same compound, the viability, T/C (second compound 10 µM, first compound 1 µM) was 8.26%, the viability, T/C (second compound 10 µM, first compound 3.16 µM) was 8.41% and the viability, T/C (second compound 10 µM, first compound 10 µM) was 2.21%.
